In assay [1] the target is T1, HCV NS3/4A protease complex, J4L6S strain (Hepatitis C virus genotype 1b, UniProt O92972, C1454S/C1711G).
T1 construct: recombinant HCV NS3/4A protease complex (amino acids 1027 to 1711) for these strains; inferred from pET21b vector and Ni-NTA purification; made in house; host or cells: Escherichia coli BL21 (DE3), pET21b
The assay is described as follows: FRET peptide assay to monitor HCV NS3/4A proteolytic activity (J4L6S strain). In kind it is biochemical. The text has this:
(§1) Generation of Recombinant HCV NS3/4A Protease Complex
(§2) HCV NS3 protease complexes, derived from the BMS strain, H77 strain or J4L6S strain, were generated, as described below. These purified recombinant proteins were generated for use in a homogeneous assay (see below) to provide an indication of how effective compounds of the present disclosure would be in inhibiting HCV NS3 proteolytic activity.
(§3) Serum from an HCV-infected patient was obtained from Dr. T. Wright, San Francisco Hospital. An engineered full-length cDNA (compliment deoxyribonucleic acid) template of the HCV genome (BMS strain) was constructed from DNA fragments obtained by reverse transcription-PCR (RT-PCR) of serum RNA (ribonucleic acid) and using primers selected on the basis of homology between other genotype 1a strains. From the determination of the entire genome sequence, a genotype 1a was assigned to the HCV isolate according to the classification of Simmonds et al. (See P Simmonds, K A Rose, S Graham, S W Chan, F McOmish, B C Dow, E A Follett, P L Yap and H Marsden, J. Clin. Microbiol., 31(6), 1493-1503 (1993)). […]

Assay [2] addresses T2, HCV NS3/4A protease complex, H77 strain (Hepatitis C virus genotype 1a, UniProt P27958, C1454S/C1711G).
T2 construct: recombinant HCV NS3/4A protease complex (amino acids 1027 to 1711) for these strains; inferred from pET21b vector and Ni-NTA purification; made in house; host or cells: Escherichia coli BL21 (DE3), pET21b
Description: FRET peptide assay to monitor HCV NS3/4A proteolytic activity (H77 strain). The class given is biochemical.
Excerpt: as §1, §2, §3

For assay [3], the target named is T3, HCV NS3/4A protease complex, BMS strain (UniProt P27958, species not given/STRAIN_BMS).
T3 construct: DNA encoding the recombinant HCV NS3/4A protease complex (amino acids 1027 to 1711) for these strains [H77 and J4L6S]; fused on or other part: For the H77 and J4L6S constructs, a three-lysine solubilising tail at the NS4A C-terminus and a Ni-NTA-purifiable tag from pET21b
T3 sequence (P27958 1027-1657, stated change not applied, one chain of several): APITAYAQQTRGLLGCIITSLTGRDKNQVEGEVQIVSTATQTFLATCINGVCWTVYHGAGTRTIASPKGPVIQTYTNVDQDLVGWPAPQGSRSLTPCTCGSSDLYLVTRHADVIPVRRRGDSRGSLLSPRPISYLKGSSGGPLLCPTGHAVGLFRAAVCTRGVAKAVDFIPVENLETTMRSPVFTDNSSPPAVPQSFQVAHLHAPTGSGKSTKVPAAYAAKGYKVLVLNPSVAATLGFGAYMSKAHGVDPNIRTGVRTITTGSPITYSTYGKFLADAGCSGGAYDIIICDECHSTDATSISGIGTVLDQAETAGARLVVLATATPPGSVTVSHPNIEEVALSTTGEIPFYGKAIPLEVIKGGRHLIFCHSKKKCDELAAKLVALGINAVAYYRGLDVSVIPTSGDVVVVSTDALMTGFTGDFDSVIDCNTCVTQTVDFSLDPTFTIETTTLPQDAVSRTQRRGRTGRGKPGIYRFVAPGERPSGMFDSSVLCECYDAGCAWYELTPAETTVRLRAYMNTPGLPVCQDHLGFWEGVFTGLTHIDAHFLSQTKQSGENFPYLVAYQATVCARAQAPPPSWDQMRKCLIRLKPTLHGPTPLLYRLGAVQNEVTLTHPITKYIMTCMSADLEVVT
The assay is described as follows: FRET peptide assay to monitor HCV NS3/4A proteolytic activity (BMS strain). The class given is biochemical, Hepatitis C virus (genotype 1a). The following applies: NS3/4A BMS strain, enzyme assay. An outline of the steps: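 Recombinant NS3/4A complexes (aa 1027–1711) with C-terminal three-lysine tail, C1711G and C1454S, expressed in E. coli BL21(DE3) (0.5 mM IPTG, 22 h, 20°C) for H77 (1a) and J4L6S (1b); BMS strain is genotype 1a patient isolate. Purified by Ni-NTA and Superdex-S200; proteolysis monitored by FRET peptide cleavage.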

Molecules are shown by their SMILES. Where two headings read alike, the source gives them in different places. A value given as a limit tells only on which side of the number the result lay.

T1 sequence (O92972 1027-1711 C1454S/C1711G, one chain of several): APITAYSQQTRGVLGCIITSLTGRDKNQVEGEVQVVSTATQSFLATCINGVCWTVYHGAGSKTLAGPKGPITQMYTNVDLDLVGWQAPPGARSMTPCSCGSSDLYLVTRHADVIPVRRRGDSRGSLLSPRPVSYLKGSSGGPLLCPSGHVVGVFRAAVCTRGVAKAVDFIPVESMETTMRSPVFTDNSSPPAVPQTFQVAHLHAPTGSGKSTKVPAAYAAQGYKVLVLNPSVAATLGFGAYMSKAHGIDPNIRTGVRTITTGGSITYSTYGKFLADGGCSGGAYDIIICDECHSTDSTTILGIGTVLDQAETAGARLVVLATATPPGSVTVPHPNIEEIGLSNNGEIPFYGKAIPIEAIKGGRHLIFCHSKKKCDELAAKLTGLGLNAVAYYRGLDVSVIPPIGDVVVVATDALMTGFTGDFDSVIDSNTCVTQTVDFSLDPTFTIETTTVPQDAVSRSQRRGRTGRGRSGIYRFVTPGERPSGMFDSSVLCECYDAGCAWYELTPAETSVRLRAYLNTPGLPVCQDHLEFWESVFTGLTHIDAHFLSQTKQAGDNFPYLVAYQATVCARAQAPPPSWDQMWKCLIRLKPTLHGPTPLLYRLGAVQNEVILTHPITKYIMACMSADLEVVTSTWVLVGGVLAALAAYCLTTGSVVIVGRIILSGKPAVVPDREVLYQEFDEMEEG
T2 sequence (P27958 1027-1711 C1454S/C1711G, one chain of several): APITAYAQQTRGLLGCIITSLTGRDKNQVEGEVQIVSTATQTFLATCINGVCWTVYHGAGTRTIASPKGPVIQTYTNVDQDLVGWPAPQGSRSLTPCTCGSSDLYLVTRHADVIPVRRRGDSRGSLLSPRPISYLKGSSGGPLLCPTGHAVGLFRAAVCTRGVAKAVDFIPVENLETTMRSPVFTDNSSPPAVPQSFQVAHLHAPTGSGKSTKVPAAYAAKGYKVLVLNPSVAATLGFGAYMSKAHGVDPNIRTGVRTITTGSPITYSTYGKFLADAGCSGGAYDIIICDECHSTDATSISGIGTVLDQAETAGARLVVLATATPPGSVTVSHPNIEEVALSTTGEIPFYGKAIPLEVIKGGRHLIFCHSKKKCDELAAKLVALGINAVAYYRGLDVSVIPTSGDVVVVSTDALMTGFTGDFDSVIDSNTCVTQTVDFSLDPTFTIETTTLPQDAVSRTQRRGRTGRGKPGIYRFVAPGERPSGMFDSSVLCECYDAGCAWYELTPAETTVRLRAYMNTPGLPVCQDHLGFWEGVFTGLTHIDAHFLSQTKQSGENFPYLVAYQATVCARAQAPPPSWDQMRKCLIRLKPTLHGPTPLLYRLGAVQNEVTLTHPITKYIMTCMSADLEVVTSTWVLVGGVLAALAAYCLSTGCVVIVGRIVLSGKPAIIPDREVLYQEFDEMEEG

As for `C=CC1CC1(NC(=O)[C@@H]1C[C@@H](NC(=O)c2cc(-c3ccccc3)nc3ccccc23)CN1C(=O)[C@@H](NC(=O)CC1CC1)C(C)(C)C)C(=O)NS(=O)(=O)C1CC1` (stereo partly shown) [Compound 9], the IC50 in assay [1] was 30 nM; in assay [2], 41 nM; in assay [3], 47 nM; in assay [3] (read-out: IC 50 Range), less than 150 nM.

Source of the values: patent US7601686B2, “Hepatitis C virus inhibitors” (Bristol-Myers Squibb Company, priority 2005, dated 2009).
